Data from US10858360B2, “Tricyclic gyrase inhibitors” (priority 2011, dated 2020).
Values after ≈ are worked out from the molar mass of the structure shown.

Tests used:
[1] = system: S. aureus ATCC 13709; assay: MIC, S. aureus ATCC 13709 (Alamar Blue broth microdilution); type: cell-based; settings: Alamar Blue read after overnight incubation at 35° C.; for MIC: Staphylococcus aureus, ATCC13709, S. aureus; for MIC Sa: S. aureus
[2] = system: E. coli ATCC 25922; assay: MIC, E. coli ATCC 25922; type: cell-based; settings: Alamar Blue read after overnight incubation at 35° C.; for MIC: Escherichia coli, ATCC25922, E. coli; for MIC Ec: E. coli

| SMILES | MIC [1] [µg/mL] | MIC [2] [µg/mL] | MIC Sa [1] [µg/mL] | MIC Ec [2] [µg/mL] |
| --- | --- | --- | --- | --- |
| CNc1cc(F)cc2c1[nH]c1nc(Oc3cncc(-c4nn[nH]n4)c3)nc(N3CC4C(N)C4C3)c12 (stereo not shown) [4.224] | 1 (≈ 2.11 µM) | > 16 |  |  |
| CNc1cc(F)cc2c1[nH]c1nc(Oc3cnc4c(c3)ncn4C)nc(N3CCC(N)C3)c12 (stereo not shown) [4.225] |  |  | ≤0.5 | 2 (≈ 4.47 µM) |
| CNc1cc(F)cc2c1[nH]c1nc(Oc3cnc4c(c3)ncn4C)nc(N3CC4CC(N)C4C3)c12 (stereo not shown) [4.226] |  |  | ≤0.5 | 2 (≈ 4.22 µM) |
| CNc1cc(F)cc2c1[nH]c1nc(Oc3cnc4c(c3)ncn4C)nc(N3CC4C[C@@H](N)C4C3)c12 (stereo partly shown) [4.227] | ≤ 0.5 | 1 (≈ 2.11 µM) |  |  |
| CNc1cc(F)cc2c1[nH]c1nc(Oc3cnc4c(c3)ncn4C)nc(N3CC4CC3CC4N)c12 (stereo not shown) [4.228] |  |  | ≤0.5 | 1 (≈ 2.11 µM) |
| CNc1cc(F)cc2c1[nH]c1nc(Oc3cnc(N4CCN(C(C)=O)CC4)nc3)nc(N3CCC(N)C3)c12 (stereo not shown) [4.229] |  |  | ≤0.5 | 2 (≈ 3.84 µM) |
| CNc1cc(F)cc2c1[nH]c1nc(Oc3ccnnc3)nc(N3CC(N)C4(CC4)C3)c12 (stereo not shown) [4.230] |  |  | 32 (≈ 76.1 µM) | >16 |
| CNc1cc(F)cc2c1[nH]c1nc(Oc3ccc4nc[nH]c(=O)c4c3)nc(N3CC4C(N)C4C3)c12 (stereo not shown) [4.231] |  |  | ≤0.5 | 2 (≈ 4.23 µM) |
| CNc1cc(F)cc2c1[nH]c1nc(Oc3cnc(C(C)C)nc3)nc(N3CC4C(N)C4C3)c12 (stereo not shown) [4.232] |  |  | ≤0.5 | ≤0.5 |
| CNc1cc(F)cc2c1[nH]c1nc(Oc3cnc(C(C)C)nc3)nc(N3C[C@H](N)C4(CC4)C3)c12 [4.233] | ≤ 0.5 | 1 (≈ 2.16 µM) |  |  |
| CNc1cc(F)cc2c1[nH]c1nc(Oc3cnc(C(C)C)nc3)nc(N3CC4CC(N)C4C3)c12 (stereo not shown) [4.234] |  |  | ≤0.5 | 1 (≈ 2.16 µM) |
| CNc1cc(F)cc2c1[nH]c1nc(Oc3cnc(C(C)C)nc3)nc(N3CCC4(CC4N)C3)c12 (stereo not shown) [4.235] | ≤ 0.5 | ≤ 0.5 |  |  |
| CNc1cc(F)cc2c1[nH]c1nc(Oc3cncc(C(N)=O)c3)nc(N3CC4CC(N)C4C3)c12 (stereo not shown) [4.236] | ≤ 0.5 | ≤ 0.5 |  |  |
| CNc1cc(F)cc2c1[nH]c1nc(Oc3cncc(C(N)=O)c3)nc(N3CC4C(N)C4C3)c12 (stereo not shown) [4.237] | ≤ 0.5 | 2 (≈ 4.46 µM) |  |  |
| CNc1cc(F)cc2c1[nH]c1nc(Oc3cncc(C(N)=O)c3)nc(N3CC(N)C4(CC4)C3)c12 (stereo not shown) [4.238] |  |  | 2 (≈ 4.32 µM) | >16 |
| CNc1cc(F)cc2c1[nH]c1nc(Oc3cncc(C(N)=O)c3)nc(N3CC4CC(N)C4C3)c12 (stereo not shown) [4.239] |  |  | ≤0.5 | 8 (≈ 17.3 µM) |
| CNc1cc(F)cc2c1[nH]c1nc(Oc3cnc(C4CC4)nc3)nc(N3CC4CC(N)C4C3)c12 (stereo not shown) [4.240] | ≤ 0.5 | ≤ 0.5 |  |  |
| CNc1cc(F)cc2c1[nH]c1nc(Oc3cnc(C4CC4)nc3)nc(N3CC4C(N)C4C3)c12 (stereo not shown) [4.241] |  |  | ≤0.5 | ≤0.5 |
| CNc1cc(F)cc2c1[nH]c1nc(Oc3cnc(C4CC4)nc3)nc(N3CC(N)C4(CC4)C3)c12 (stereo not shown) [4.242] |  |  | ≤0.5 | ≤0.5 |
| CNc1cc(F)cc2c1[nH]c1nc(Oc3cnc(C4CC4)nc3)nc(N3CCC(N)C3)c12 (stereo not shown) [4.243] |  |  | ≤0.5 | ≤0.5 |
| CNc1cc(F)cc2c1[nH]c1nc(Oc3cnc(C4CC4)nc3)nc(N3CC4CC4(CN)C3)c12 (stereo not shown) [4.246] | ≤ 0.5 | ≤ 0.5 |  |  |
| CNc1cc(F)cc2c1[nH]c1nc(Oc3cnc(C4CC4)nc3)nc(N3CC4NCCCC43)c12 (stereo not shown) [4.247] | 1 (≈ 2.17 µM) | 8 (≈ 17.4 µM) |  |  |
| CNc1cc(F)cc2c1[nH]c1nc(Oc3cnc(C4CC4)nc3)nc(N3CC4CCNC3C4)c12 (stereo not shown) [4.248] | ≤ 0.5 | ≤ 0.5 |  |  |
| CNc1cc(F)cc2c1[nH]c1nc(Oc3cnc(C4CC4)nc3)nc(N3CC4C(CN)C4C3)c12 (stereo not shown) [4.249] | ≤ 0.5 | ≤ 0.5 |  |  |
| CNc1cc(F)cc2c1[nH]c1nc(Oc3cnc(C4CC4)nc3)nc(N3CC4CCNC4C3)c12 (stereo not shown) [4.250] |  |  | ≤0.5 | ≤0.5 |
| CNc1cc(F)cc2c1[nH]c1nc(Oc3cnc(C4CC4)nc3)nc(N3CC4CCC(CN)C4C3)c12 (stereo not shown) [4.253] | ≤ 0.5 | ≤ 0.5 |  |  |
| CNc1cc(F)cc2c1[nH]c1nc(Oc3cnc(C4CC4)nc3)nc(N3CC4C[C@@H](N)C4C3)c12 (stereo partly shown) [4.254] | ≤ 0.5 | ≤ 0.5 |  |  |

| SMILES | MIC [1] [µg/mL] | MIC [2] [µg/mL] | MIC Sa [1] [µg/mL] | MIC Ec [2] [µg/mL] |
| --- | --- | --- | --- | --- |
| CNc1cc(F)cc2c1[nH]c1nc(Oc3cnc(C4CC4)nc3)nc(N3CC4CCC3C4N)c12 (stereo not shown) [4.256] | ≤ 0.5 | ≤ 0.5 |  |  |
| CCc1ncc(Oc2nc(N3C[C@H](N)C4(CC4)C3)c3c(n2)[nH]c2c(NC)cc(F)cc23)cn1 [4.259] | ≤ 0.5 | ≤ 0.5 |  |  |
| CCc1ncc(Oc2nc(N3CC4CC4(CN)C3)c3c(n2)[nH]c2c(NC)cc(F)cc23)cn1 (stereo not shown) [4.261] | ≤ 0.5 | 1 (≈ 2.23 µM) |  |  |
| CCc1ncc(Oc2nc(N3CCC4(CC4N)C3)c3c(n2)[nH]c2c(NC)cc(F)cc23)cn1 (stereo not shown) [4.263] | ≤ 0.5 | ≤ 0.5 |  |  |
| CCc1ncc(Oc2nc(N3CC4C[C@@H](N)C4C3)c3c(n2)[nH]c2c(NC)cc(F)cc23)cn1 (stereo partly shown) [4.264] | ≤ 0.5 | ≤ 0.5 |  |  |
| CNc1cc(F)cc2c1[nH]c1nc(Oc3ccc4c(c3)C(=O)NC4)nc(N3C[C@H](N)C4(CC4)C3)c12 [4.265] | ≤ 0.5 | 4 (≈ 8.45 µM) |  |  |
| CNc1cc(F)cc2c1[nH]c1nc(Oc3ccc4c(c3)C(=O)NC4)nc(N3CCC4(CC4N)C3)c12 (stereo not shown) [4.266] |  |  | ≤0.5 | 1 (≈ 2.11 µM) |
| CNc1cc(F)cc2c1[nH]c1nc(Oc3ccc4c(c3)C(=O)NC4)nc(N3CC4[C@H](C[C@H]4N)C3)c12 (stereo partly shown) [4.267] | ≤ 0.5 | 4 (≈ 8.45 µM) |  |  |
| CNc1cc(F)cc2c1[nH]c1nc(Oc3ccc4c(c3)C(=O)NC4)nc(N3CC4CCNC4C3)c12 (stereo not shown) [4.269] |  |  | ≤0.5 | 4 (≈ 8.45 µM) |
| CNc1cc(F)cc2c1[nH]c1nc(Oc3ccc4c(c3)C(=O)NC4)nc(N3CC4(CCC4N)C3)c12 (stereo not shown) [4.270] |  |  | ≤0.5 | 2 (≈ 4.22 µM) |
| CNc1cc(F)cc2c1[nH]c1nc(Oc3cncc(Cl)c3)nc(N3CC4CC(N)C4C3)c12 (stereo not shown) [4.271] |  |  | ≤0.5 | ≤0.5 |
| CNc1cc(F)cc2c1[nH]c1nc(Oc3cncc(Cl)c3)nc(N3CC4C(N)C4C3)c12 (stereo not shown) [4.272] | ≤ 0.5 | ≤ 0.5 |  |  |
| CNc1cc(F)cc2c1[nH]c1nc(Oc3cncc(Cl)c3)nc(N3CC(N)C4(CC4)C3)c12 (stereo not shown) [4.273] |  |  | ≤0.5 | 2 (≈ 4.41 µM) |
| CNc1cc(F)cc2c1[nH]c1nc(Oc3cncc(Cl)c3)nc(N3CC4C[C@@H](N)C4C3)c12 (stereo partly shown) [4.274] | ≤ 0.5 | ≤ 0.5 |  |  |
| CNc1cc(F)cc2c1[nH]c1nc(Oc3cncc(Cl)c3)nc(N3CC4(CCC4N)C3)c12 (stereo not shown) [4.275] |  |  | ≤0.5 | ≤0.5 |
| CNc1cc(F)cc2c1[nH]c1nc(Oc3cncc(Cl)c3)nc(N3CC4CC3CC4N)c12 (stereo not shown) [4.276] |  |  | ≤0.5 | 8 (≈ 17.6 µM) |
| CNc1cc(F)cc2c1[nH]c1nc(Oc3cncc(Cl)c3)nc(N3CC(N)C3)c12 [4.277] | ≤ 0.5 | ≤ 0.5 |  |  |
| CNc1cc(F)cc2c1[nH]c1nc(Oc3cncc(Cl)c3)nc(N3CCC4(C[C@H]4N)C3)c12 (stereo partly shown) [4.278] | ≤ 0.5 | ≤ 0.5 |  |  |
| CNc1cc(F)cc2c1[nH]c1nc(Oc3cncc(Cl)c3)nc(N3CC4CC3CC4N)c12 (stereo not shown) [4.279] |  |  | ≤0.5 | ≤0.5 |
| CNc1cc(F)cc2c1[nH]c1nc(Oc3cnc(C(F)(F)F)nc3)nc(N3C[C@@H]4[C@@H](N)[C@@H]4C3)c12 [4.280] | ≤ 0.5 | ≤ 0.5 |  |  |
| CNc1cc(F)cc2c1[nH]c1nc(Oc3cncc(Br)c3)nc(N3CC4CC(N)C4C3)c12 (stereo not shown) [4.283] |  |  | ≤0.5 | ≤0.5 |
| CNc1cc(F)cc2c1[nH]c1nc(Oc3cncc(Br)c3)nc(N3CC4CC3CC4N)c12 (stereo not shown) [4.284] |  |  | ≤0.5 | ≤0.5 |
| CNc1cc(F)cc2c1[nH]c1nc(Oc3cnc(C4CCC4)nc3)nc(N3CC4CC(N)C4C3)c12 (stereo not shown) [4.285] | ≤ 0.5 | ≤ 0.5 |  |  |
| CNc1cc(F)cc2c1[nH]c1nc(Oc3cnc(C4CCC4)nc3)nc(N3CC4C(N)C4C3)c12 (stereo not shown) [4.286] | ≤ 0.5 | ≤ 0.5 |  |  |
| CNc1cc(F)cc2c1[nH]c1nc(Oc3cnc(C4CCC4)nc3)nc(N3C[C@H](N)C4(CC4)C3)c12 [4.287] | ≤ 0.5 | ≤ 0.5 |  |  |
| CNc1cc(F)cc2c1[nH]c1nc(Oc3ccc4c(N)nc(C)nc4c3)nc(N3CC4C(N)C4C3)c12 (stereo not shown) [4.288] |  |  | 4 (≈ 8.24 µM) | >16 |
